In patent US4868158A, “Method for the production of a macromolecular carrier loaded with a biologically active substance” (Oncholab AB, priority 1985, dated 1989):

Test system: WEHI-3B cells, a murine monomyelocytic cell line
Conditions: 1.0 million WEHI-3B cells i.p.; 1.9 mg AD-32/kg/day i.p. for five days
Experimental: Balb/C mice were injected intraperitonally (i.p.) with 1.0 million WEHI-3B cells, a murine monomyelocytic cell line. […] The AD-32 was administered i.p. dissolved in a mixture of ethanol and castor oil.

Structure (SMILES): CCCCC(=O)OCC(=O)C1(O)Cc2c(O)c3c(c(O)c2C(OC2CC(NC(=O)C(F)(F)F)C(O)C(C)O2)C1)C(=O)c1c(OC)cccc1C3=O (stereo not shown) [AD-32, N-trifluoroacetyladriamycin-14-valerate]
- ILS, Increased Life Span: 2%
